Data taken from patent publication US20090169472A1, “METHODS AND COMPOSITIONS FOR TREATING IMMUNE DISORDERS” (CANCER RESEARCH TECHNOLOGY LTD., priority 2005, published 2009).
Oligonucleotides are written 5' to 3', each unit as a sugar letter and its base; * is a phosphorothioate linkage, no mark a phosphodiester; rarer units and linkages stand in square brackets, end groups in braces. Plain capitals give the bases only. r = 2'-OH (RNA)

Tests used:
[1] = test system: human plasmacytoid DC (pDC); assay: Human pDC activation assay (IFNα and IL-6 in supernatant by sandwich ELISA); type: cell-based; conditions: for IFN-α production by human pDC: different doses of polyUs 21-mer, polyAs 21-mer 1 μM, overnight culture
Experimental: Human pDC activation assays. R848 and RNA9.2DR complexed to LyoVec were from Invivogen. RNA oligonucleotides were purchased from Sigma Proligo. Human PMBCs were purified from normal human peripheral blood by Ficoll-Hypaque centrifugation. BDCA4^+ plasmacytoid DC were purified from total PBMC by positive selection using CD304^+ Microbeads and MiniMacs from MiltenyiBiotec. Oligonucleotides/PEI complexes, prepared as described above, were added to 1-2×10^5 pDC seeded in duplicate in 96-well-plates. Cells were cultured overnight in a final volume of 200 μl, supernatants were collected after 18-20 hr of culture and levels of IFNα and IL-6 were determined by sandwich ELISA.

Flt3L-DC = Flt3L-DC activation assay (cytokines in supernatant by sandwich ELISA); type: cell-based, mouse
Experimental: Flt3L-DC were generated from bone marrow cell suspensions in RPMI 1640 medium containing 10% fetal calf serum, 2 mM glutamine, 100 units/ml penicillin, 100 μg/ml streptomycin, 50 μM 2-mercaptoethanol and 50 ng/ml murine Flt3L (R&D systems) and were used at day 10 or 11 of cultures.
For stimulation with oligonucleotides, 2×10^5 Flt3L-DC were seeded in triplicate in 96-well-plates. Oligonucleotides were added and cells were cultured overnight in a final volume of 200 μl. Controls contained medium alone, 0.5 μg/ml CpG 1668, 100 mM loxoribine or 1 μM R848.
For stimulation with oligonucleotides other than CpG 1668, different doses of each test oligonucleotides were diluted in 150 mM NaCl solution and mixed with an equal volume of 150 mM NaCl solution+/−polytheylenimine (PEI; 3 μl/ml PEI were used irrespective of the RNA dose). After 15 min incubation at room temperature, oligonucleotide/PEI complexes were added to cells. Supernatants were collected after 18-20 hr of culture and levels of IFNα, IL-6 and IL-12 p40 were determined by sandwich ELISA.

[2] = polyUs 21-mer 10 μM as PEI complexes, RNA9.2DR 1 μM as LyoVec complexes, R848 1 μM
[3] = oligonucleotide/PEI complexes, C57BL/6 Flt3L-DC, overnight culture, result in words

Row | Substance | IFN-α production by human pDC ([1]; PEI complexes) | optimal dose of ssRNA for IFN-α induction ([1]; human pDC, PEI complexes) | IFNα production by human pDC, comparison of TLR7/8 agonists [1, 2] | IL-6 induction by human pDC [1, 2] | potency in inducing IFNα compared with RNA40 (Flt3L-DC; PEI complexes) | IFNα levels, RNA oligonucleotide polyUs-21 compared with DNA oligonucleotide polydUs-21 (Flt3L-DC; PEI complexes, all doses tested) | IFNα induction by Flt3L-DC (Flt3L-DC; free oligonucleotide given to culture without PEI) | fold more potent in inducing IFNα by Flt3L-DC than R848 and loxoribine (Flt3L-DC; ligands at concentrations of maximum cytokine induction: polyUs-21 1 μg/ml + PEI, CpG 1668 0.5 μg/ml, loxoribine 100 mM, R848 10 μg/ml) | optimal dose of ssRNA for IFNα induction (Flt3L-DC; mouse Flt3L, PEI complexes) | IFNα induction by Flt3L-DC (Flt3L-DC; [3]) | ability to stimulate TLR7 (Flt3L-DC; summary statement on oligonucleotides of Table 1)
1 | polyUs-21: polyU RNA 21-mer, phosphorothioate bonds, SEQ ID NO 5 (rU*rU*rU*rU*rU*rU*rU*rU*rU*rU*rU*rU*rU*rU*rU*rU*rU*rU*rU*rU*rU) | induced IFN-α production by human pDC in a dose-dependent manner | 3 µg/mL | induced equivalent levels of IFNα production by human pDC | failed to induce IL-6 secretion by pDC | much more potent than RNA40 | induced higher levels of IFNα at all doses tested | induced IFNα | approximately 30 times | 3 µg/mL | induced IFNα by Flt3L-DC in a dose dependent manner | capable of stimulating TLR7
2 | polyAs-21: polyA RNA 21-mer, phosphorothioate bonds, SEQ ID NO 26 (rA*rA*rA*rA*rA*rA*rA*rA*rA*rA*rA*rA*rA*rA*rA*rA*rA*rA*rA*rA*rA) | failed to induce IFNα |  |  |  |  |  |  |  |  | failed to induce IFNα | 
